Reference: patent US8124381B2, “Process and materials for production of glucosamine and N-acetylglucosamine” (Arkion Life Sciences, priority 2002, dated 2012)

Legend:
[1] = Glucosamine stability under acid/heat hydrolysis conditions; assay type: physicochemical; settings: for glucosamine stability with heating: 10 g/l in M9A, 100 C
Description: In the first experiment N-acetylglucosamine (10 g/l in […] medium without glucose) was hydrolyzed at 100° C. with various levels of hydrochloric acid. In a parallel experiment, glucosamine was subjected to the same treatments to determine its stability under hydrolysis conditions. Conversion of N-acetylglucosamine to glucosamine was determined by monitoring the amount of glucosamine generated by the hydrolysis reaction. Glucosamine was determined by an HPLC method based on that described by Way et al. (Journal of Liquid Chromatography and Related Technologies, 23:2861, 2000). Some specific details of the HPLC method are given below: column: […] Both the amount of remaining N-acetylglucosamine and the amount of formed glucosamine were monitored. N-acetylglucosamine was measured by HPLC using a standard carbohydrate system. Some specific details are given below: column: […] Glucosamine was measured using the ion pair HPLC column as described above. […] At 100° C. conversion was complete by 2.5 hours. […] At lower temperatures, some hydrolysis was observed, but this was much slower. […] Acid hydrolysis of N-acetylglucosamine at 90° C. was performed. […] A series of 12-ml glass screw capped tubes with Teflon lined caps were employed. Each tube represented a separate time point (0, 15, 30, 45, 60, 90 minutes) and contained 2 ml of the N-acetylglucosamine/hydrochloric acid solution. Tubes were heated in a heating block equilibrated at 90° C. Tubes were removed at appropriate times and quick cooled in ice water. Appropriate dilutions were made in and samples analyzed by HPLC for glucosamine and N-acetylglucosamine. […] Kinetics of N-acetylglucosamine disappearance were essentially the same for all four solutions. Hydrolysis is very rapid at 90° C. […] No N-acetylglucosamine was detected at 60 or 90 minutes. After 1 hour at 90° C., N-acetylglucosamine was no longer detected even with 20% N-acetylglucosamine.

E. coli strain 7107-18 = experiment: Effects of glucosamine and N-acetylglucosamine on growth and survival of E. coli 7107-18; assay type: cell-based, Escherichia coli
Description: As shown in Example 11, glucosamine is unstable at the regular pH range used for E. coli growth. […] The toxicity was attributed to at least partially to GlcN degradation products in media with a starting pH of 7.0. […] However, low pH levels are known to limit cell growth. Therefore, experiments were conducted in which 7107-18 was grown at pH 7.0, 6.0, 5.5, 5.0 and 4.7. The main objectives were to study cell growth at these lower pHs (with GlcN), and to see if the previously observed cell death caused by GlcN degradation could be reduced at lower pHs.
Cells were inoculated into M9A-glucose (40 g/L) containing 62 g/L N-acetyl glucosamine.

[2] = Glucosamine stability in cell-free M9A medium; assay type: physicochemical; settings: for loss of glucosamine: 60 g l-1, cell-free M9A-glucose, 30 C, 52 hours; for glucosamine degradation: cell-free M9A + 40 g l-1 glucose
Description: Glucosamine stability was tested in cell-free M9A medium (14 g l^−1 K2HPO4, 16 g l^−1 KH2PO4, 1 g l^−1 Na3citrate.2H2O, 5 g l^−1 (NH4)2SO4, 1 mM MgSO4, 1 mM CaCl2, pH 7.0) supplemented with 40 g l^−1 glucose. Glucosamine was prepared as a 30% glucosamine-HCl concentrated solution and was added to final concentrations of 0, 4, 13, 26 and 42 g l^−1 (50 ml total in 250-ml flask). The pH of the medium was adjusted to pH 6.9. Flasks were placed on a shaker and agitated at about 225 rpm. Glucosamine levels and pH were monitored at 30° C. for about 24 hours. […] The degradation was only about 25% when the starting glucosamine concentration was 4 g l^−1. Glucosamine degradation was accompanied by a decline of pH in the medium. In the 42 g l^−1 glucosamine sample the pH in the medium was lowered by 0.7 units (from 6.9 to 6.2) after a 24-hr period, as compared to a pH change of only about 0.15 units in medium without glucosamine.
The breakdown of glucosamine (60 g l^−1) at four starting pH levels was monitored at 30° C. in cell-free M9A-glucose (40 g l^−1) for 52 hours. At each sampling time, the solutions were readjusted to their original pH. Each condition was run in triplicate. […] The loss of glucosamine was 68% at pH 7.0 as compared to 18% at pH 5.5.
To test the involvement of the aldehyde group, degradation was monitored in M9A medium containing 30 g l^−1 glucosamine with and without 40 g l^−1 glucose. If the aldehyde group is involved, the presence of glucose would affect the rate of glucosamine degradation/polymerization.

[3] = Stability of glucosamine in stored culture supernatant samples; assay type: physicochemical
Description: Shake flask culture samples were assayed by both the HPLC method and the colorimetric methods. The culture supernatants were obtained by centrifugation and filtration to remove particles, and stored at -20° C. until analysis. HPLC was calibrated using a single point 2500 ppm standard solution prepared in […] medium. After thawing, samples were immediately analyzed by HPLC. After remaining in the autosampler overnight, the samples were analyzed again. Agreement was very good between the two methods.

E. coli 7107-18 = tested on: E. coli 7107-18
Description: Batches of M9A medium with 40 g l^−1 glucose and 20 g 1-1 GlcN were adjusted to five different pHs. One set of flasks was immediately inoculated with 7107-18 cells. Replicate flasks of the same media were incubated without cells for 10 hours, before inoculation. Seven times over 48 hours, flasks were sampled to measure pH, OD600, and GlcN concentration. At each sample point, the pH of the culture was readjusted back to the initial settings.
Glucosamine is vital for E. coli growth since it is a precursor for the synthesis of important cell wall components. E. coli is also capable of using Glucosamine and N-acetylglucosamine as the sole carbon source. The catabolism of the amino sugars requires a functional glucosamine deaminase encoded by the nagB gene, which was deleted in strain 7107-18. […] Experiments were carried out to investigate if glucosamine affects E. coli 7107-18 cell growth and survival in medium containing 40 g l^−1 glucose.

[4] = Degradation in hydrochloric acid at 90-100 C based on ammonia formation; assay type: physicochemical; settings: 5% and 10% glucosamine hydrochloride, 12% and 20% hydrochloric acid, 90 C, 1-24 hours
Description: Glucosamine degradation was examined at 90° C. and 100° C. using 5% and 10% glucosamine hydrochloride (w/w) with 12% and 20% hydrochloric acid by weight. Samples were incubated from 1-24 hours and assayed enzymatically for ammonia using glutamate dehydrogenase. […] Glucosamine degradation is based on ammonia formation.
N-acetylglucosamine was hydrolyzed to glucosamine at 90° C. using the hybridization oven. The reaction was carried out inside a screw capped glass tube. The 30% hydrochloric acid (30 g) was preincubated at 90° C. for 1 hour. After this 10 g solid N-acetylglucosamine was added, quickly dissolved, and a To sample taken. Samples were taken at 30-minute intervals over the next three hours. […] Samples were analyzed for ammonia enzymatically.

[5] = target: T1, E. coli glucosamine synthase GlmS*54 (Escherichia coli, UniProt P17169, A39T/G472S/R250C); experiment: Effects of phosphorylated sugars on glucosamine synthase; assay type: biochemical
T1 construct: made in house; host or cells: E. coli 7107-18 (printed '7017-18'; T7-glmS*54 integrated at galK) and strains derived from it; crude extract
T1 sequence (P17169 2-609 A39T/R250C/G472S): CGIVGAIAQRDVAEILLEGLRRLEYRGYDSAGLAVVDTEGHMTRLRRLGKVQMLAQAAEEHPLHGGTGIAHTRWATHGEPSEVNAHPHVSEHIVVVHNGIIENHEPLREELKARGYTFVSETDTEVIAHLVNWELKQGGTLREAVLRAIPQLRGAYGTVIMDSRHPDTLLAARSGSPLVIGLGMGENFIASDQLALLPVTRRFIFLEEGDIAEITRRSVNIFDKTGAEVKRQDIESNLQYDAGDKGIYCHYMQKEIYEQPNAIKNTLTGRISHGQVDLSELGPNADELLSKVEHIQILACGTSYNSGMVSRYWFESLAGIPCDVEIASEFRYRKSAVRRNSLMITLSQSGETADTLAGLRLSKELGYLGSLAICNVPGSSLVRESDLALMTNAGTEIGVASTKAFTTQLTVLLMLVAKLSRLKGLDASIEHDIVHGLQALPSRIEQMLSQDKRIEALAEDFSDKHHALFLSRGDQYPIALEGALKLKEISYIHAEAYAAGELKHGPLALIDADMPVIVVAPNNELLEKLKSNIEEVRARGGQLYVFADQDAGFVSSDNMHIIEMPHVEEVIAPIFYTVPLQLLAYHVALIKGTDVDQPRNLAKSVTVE
Description: Glucosamine synthetase activity was examined in the presence of various phosphorylated sugars. Crude enzyme extracts was prepared from cells of 7017-18 grown in shake flasks for 24 hours with lactose induction.

[6] = substrate: O=P(O)(O)OC[C@H]1OC(O)(CO)[C@@H](O)[C@@H]1O; experiment: GlmS inhibition and Michaelis-Menten kinetics; assay type: biochemical, Escherichia coli
Description: Different glucosamine synthetase enzymes, including native B. subtillus GlmS, native E. coli GlmS and mutant E. coli GlmS, were studied in vitro. Cells of various E. coli strains were grown in the M9A medium, harvested, and frozen. Cells extracts were prepared and the glucosamine synthetases were characterized and compared.
Enzyme sensitivities to the reaction product glucosamine-6-P were examined. […] This figure highlights the dramatic difference between the wild type GlmS and these mutant GlmS strains.
The Mutants 2123-54 and the B. subtilis enzyme have higher Ki values (Table 6). Measured Ki constants for several of these mutants are 4 to 8 times the value for the native enzyme in strain 2123-12. From shake flask studies it is apparent that decreased sensitivity to glucosamine-6-P allows higher glucosamine levels to accumulate.
These values are slightly higher than those obtained with the native enzyme.

With `N[C@H]1C(O)O[C@H](CO)[C@@H](O)[C@@H]1O` (stereo partly shown) [glucosamine] the glucosamine degradation ([1]; 20 g/l, 1 N hydrochloric acid, 35, 60 or 100 C, 24 hours) was “No degradation was observed”, the loss of glucosamine ([1]; 90 C, 12% and 16% hydrochloric acid, 90 minutes) was “No large loss of glucosamine was observed” and the “glucosamine stability with heating” value ([1]; pH 1.0 or lower, hydrochloric acid) was “stable”. The “glucosamine stability with heating” value ([1]; pH higher than 1.0) was “a significant amount of glucosamine was lost”, the “viable count relative to original number” value (E. coli strain 7107-18; 40 g per liter, after 52 hrs) was “about one-fifth” and the “concentration at which toxicity was observed” value (E. coli strain 7107-18; pre-incubated in medium (pH 7.0) for 3.5 hrs prior to inoculation) was 20000 µg/mL. The “stability of glucosamine (in words)” value ([2]; 0-42 g l-1 in cell-free M9A-glucose, pH 6.9, 30 C) was “unstable”, the “glucosamine breakdown with versus without 40 g l-1 glucose” value ([2]; 30 g l-1 glucosamine in M9A medium) was “No significant difference” and the “decline of pH in the medium” value ([2]; 42 g l-1 glucosamine, 24-hr period (6.9 to 6.2)) was 0.7 units. The loss of glucosamine ([2]; pH 5.5) was 18%, the loss of glucosamine ([2]; pH 7.0) was 68% and the glucosamine degradation ([2]; starting 4 g l-1, pH 6.9, 30 C, about 24 hours) was “about 25%”. For the same molecule, the glucosamine degradation ([2]; starting 42 g l-1, pH 6.9, 30 C, less than a day) was “More than half”, the “glucosamine concentration after storage” value ([3]; filtered culture samples, -20 C, several weeks) was “no decrease in glucosamine concentration” and the “glucosamine concentration after storage” value ([3]; filtered samples, room temperature, overnight) was “did not result in any decrease in glucosamine concentration”. The “growth of freshly inoculated cultures” value (E. coli 7107-18; 10 and 20 g of glucosamine per liter, medium with 40 g l-1 glucose) was “slightly inhibited”, the “toxicity on strain 7107-18” value (E. coli 7107-18; 20 g l-1 glucosamine pre-incubated in the medium (pH 7.0) for 3.5 hrs prior to inoculation) was “Toxicity was observed” and the “cell growth after inoculation into pre-incubated medium” value (E. coli 7107-18; 20 g l-1 glucosamine, medium incubated 10 hours before inoculation, pH 7.0 to 4.7) was “very poor”. For the same molecule, the “cell growth without glucosamine pre-incubation” value (E. coli 7107-18; 20 g l-1 glucosamine, pH 7.0) was “good growth”, the “viable counts relative to inoculation levels” value (E. coli 7107-18; 35 g l-1 glucosamine) was 10^5 fold less than inoculation levels and the “cell growth, inoculated immediately” value (E. coli 7107-18; 35 g l-1 glucosamine in M9A-glucose (40 g l-1)) was “grew reasonably well”. The “cell survival in pre-incubated medium” value (E. coli 7107-18; 35 g l-1 glucosamine, medium pre-incubated as short as 3.5 hours) was “died rapidly”, the “viable count after 52 hrs” value (E. coli 7107-18; 40 g glucosamine per liter) was “about one-fifth the original number” and the “cell growth and survival” value (E. coli 7107-18; 40 g glucosamine per liter, killing after about 16 hours) was “prevented cell growth and began to kill the cells”. The “cell survival without medium pre-incubation” value (E. coli 7107-18; 50 g l-1 glucosamine) was “Cells died” and the “glucosamine degradation based on ammonia formation (in words)” value [4] was “significantly higher with higher acid concentration”.

With `CC(=O)N[C@H]1C(OP(=O)(O)O)O[C@H](CO)[C@@H](O)[C@@H]1O` (stereo partly shown) [N-acetylglucosamine-1-P, N-acetylglucosamine-1-phosphate] the activity at 10000 µM [5] was 100%.

For `N[C@H]1C(OP(=O)(O)O)O[C@H](CO)[C@@H](O)[C@@H]1O` (stereo partly shown) [glucosamine-1-P, glucosamine-1-phosphate], the activity at 10000 µM [5] was 79% and the “inhibition of glucosamine synthetase (in words)” value [5] was “inhibited”.

B1: E. coli GlmS mutant GlmS*124, SEQ ID NO:8 (Leu469Pro) (strain 2123-124) (Escherichia coli K-12; L469P) (protein)
chain: CGIVGAIAQRDVAEILLEGLRRLEYRGYDSAGLAVVDAEGHMTRLRRLGKVQMLAQAAEEHPLHGGTGIAHTRWATHGEPSEVNAHPHVSEHIVVVHNGIIENHEPLREELKARGYTFVSETDTEVIAHLVNWELKQGGTLREAVLRAIPQLRGAYGTVIMDSRHPDTLLAARSGSPLVIGLGMGENFIASDQLALLPVTRRFIFLEEGDIAEITRRSVNIFDKTGAEVKRQDIESNLQYDAGDKGIYRHYMQKEIYEQPNAIKNTLTGRISHGQVDLSELGPNADELLSKVEHIQILACGTSYNSGMVSRYWFESLAGIPCDVEIASEFRYRKSAVRRNSLMITLSQSGETADTLAGLRLSKELGYLGSLAICNVPGSSLVRESDLALMTNAGTEIGVASTKAFTTQLTVLLMLVAKLSRLKGLDASIEHDIVHGLQALPSRIEQMLSQDKRIEALAEDFSDKHHAPFLGRGDQYPIALEGALKLKEISYIHAEAYAAGELKHGPLALIDADMPVIVVAPNNELLEKLKSNIEEVRARGGQLYVFADQDAGFVSSDNMHIIEMPHVEEVIAPIFYTVPLQLLAYHVALIKGTDVDQPRNLAKSVTVE
notes: made in house; host or cells: E. coli strain 2123-124, cell extract
Work on B1 yielded a Km [6] of 1100 µM.

B2: E. coli GlmS mutant GlmS*72, SEQ ID NO:14 (Glu15Lys, Asp387Val, Ser450Pro, Glu525Gly) (strain 2123-72) (Escherichia coli K-12; D387V/E15K/E525G/S450P) (protein)
chain: CGIVGAIAQRDVAKILLEGLRRLEYRGYDSAGLAVVDAEGHMTRLRRLGKVQMLAQAAEEHPLHGGTGIAHTRWATHGEPSEVNAHPHVSEHIVVVHNGIIENHEPLREELKARGYTFVSETDTEVIAHLVNWELKQGGTLREAVLRAIPQLRGAYGTVIMDSRHPDTLLAARSGSPLVIGLGMGENFIASDQLALLPVTRRFIFLEEGDIAEITRRSVNIFDKTGAEVKRQDIESNLQYDAGDKGIYRHYMQKEIYEQPNAIKNTLTGRISHGQVDLSELGPNADELLSKVEHIQILACGTSYNSGMVSRYWFESLAGIPCDVEIASEFRYRKSAVRRNSLMITLSQSGETADTLAGLRLSKELGYLGSLAICNVPGSSLVRESVLALMTNAGTEIGVASTKAFTTQLTVLLMLVAKLSRLKGLDASIEHDIVHGLQALPSRIEQMLPQDKRIEALAEDFSDKHHALFLGRGDQYPIALEGALKLKEISYIHAEAYAAGELKHGPLALIDADMPVIVVAPNNGLLEKLKSNIEEVRARGGQLYVFADQDAGFVSSDNMHIIEMPHVEEVIAPIFYTVPLQLLAYHVALIKGTDVDQPRNLAKSVTVE
notes: made in house; host or cells: E. coli strain 2123-72 (from 7101-17(DE3), plasmid with glmS*72 integrated), cell extract
Molecule B2 has a Km [6] of 950 µM.
